Data on 5 compounds can be found in BindingDB's records for doi:10.1016/j.bmc.2004.09.036 (University of Alabama At Birmingham, 2005).

One may read the Ki as the equilibrium dissociation constant of an inhibitor or competing ligand from its target. A high value points to weaker binding.

Common to all, as to experiment: Protease Inhibition Assay
The target of test [1] is T1, Genome polyprotein [1066-1250,R1182K]/[1394-1440,K1405R,D1408E] (dengue virus type 2, UniProt P14340+P27914, D1408E/K1405R/R1182K).
T1 construct: 1066-1250; 1394-1440
T1 sequence (P14340 1394-1440, looked up, stated change not applied): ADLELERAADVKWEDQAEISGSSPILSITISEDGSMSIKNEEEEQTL
T1 sequence (P27914 1066-1250, looked up, stated change not applied): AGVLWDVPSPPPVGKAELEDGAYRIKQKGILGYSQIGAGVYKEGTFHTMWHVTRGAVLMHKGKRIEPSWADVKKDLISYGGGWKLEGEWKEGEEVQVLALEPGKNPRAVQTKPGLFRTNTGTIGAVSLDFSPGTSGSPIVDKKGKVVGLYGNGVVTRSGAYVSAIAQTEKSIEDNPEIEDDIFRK
Conditions: pH 8.5; 23 °C. As to the method: (§1) All proteases were assayed by monitoring the cleavage of peptide substrate with fluorescent reporter at room temperature with a microtiter plate spectrofluorometer. Three different concentrations of inhibitors were used for calculating Ki values. Kinetic data were measured with an excitation wavelength of 390nm and emission wavelength of 460nm. From the initial velocities of the reactions Ki values were calculated by nonlinear regression method using the program EZ-fit (Perella Scientific).

For the next test, the target named is T2, Serine protease 1 (Bos taurus, UniProt P00760).
T2 sequence (P00760 whole entry): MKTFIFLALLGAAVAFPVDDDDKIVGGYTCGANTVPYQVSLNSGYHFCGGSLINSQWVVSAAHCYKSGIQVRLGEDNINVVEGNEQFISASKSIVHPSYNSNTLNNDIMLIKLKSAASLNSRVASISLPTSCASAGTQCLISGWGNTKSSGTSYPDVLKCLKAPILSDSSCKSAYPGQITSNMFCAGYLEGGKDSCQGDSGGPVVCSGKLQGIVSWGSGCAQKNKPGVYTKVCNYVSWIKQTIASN
Conditions: pH 7.6; 23 °C. The method, then:
as §1

Test [2] concerns the target T3, Genome polyprotein [1424-1463]/[1502-1685] (West Nile virus, UniProt P06935).
T3 construct: 1424-1463; 1502-1685
T3 sequence (P06935 whole entry) 1: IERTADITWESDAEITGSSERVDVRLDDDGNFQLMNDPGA
T3 sequence (P06935 whole entry) 2: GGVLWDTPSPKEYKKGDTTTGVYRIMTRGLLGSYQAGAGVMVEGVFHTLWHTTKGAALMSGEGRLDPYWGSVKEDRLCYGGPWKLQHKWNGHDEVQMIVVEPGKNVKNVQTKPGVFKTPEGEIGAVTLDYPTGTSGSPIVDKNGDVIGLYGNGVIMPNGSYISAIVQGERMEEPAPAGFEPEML
The settings on record: pH 8.5; 23 °C. As to the method:
as §1

In the case of `NC(N)=NN=Cc1ccc(C=NN=C(N)N)cc1` [biguanidine, 1], the inhibitory constant (Ki) came out at 44 µM in test [1], 87 µM on Serine protease 1 and 35 µM in test [2].

On to `NC(N)=NN=C1C(=O)Nc2ccccc21` [guanidine, 4], for which the inhibition constant Ki stood at 23 µM in test [1], 4 µM at Serine protease 1 and 16 µM in test [2].

For the compound `Cc1ccc(C(=NN=C(N)N)P(O)O)cc1` [guanidine, 5], the inhibitory constant (Ki) is 14 µM in test [1], 3.2 µM on Serine protease 1 and 13 µM in test [2].

Consider `N=C(N)NN=CC=NN=C(N)N` [biguanidine, 2], for which the Ki in test [1] is 423 µM; at Serine protease 1 it was 155 µM; in test [2], 337 µM.

On to `NC(N)=NNc1ccc(NNC(N)N)cc1` [biguanidine, 3], for which the figures for the Ki (in test [1]; at Serine protease 1; in test [2]) were 1780 µM, 51 µM and 1090 µM, respectively.
